From ChEMBL document CHEMBL4665869, “New thiazolopyrimidine as anticancer agents: Synthesis, biological evaluation, DNA binding, molecular modeling and ADMET study” (Bioorg Med Chem Lett, 2020)
In brackets after ≈: the same amount, converted by molar mass.

Columns and labels:
MDA-MB-468 = test: Growth inhibition of human MDA-MB-468 cells at 10 uM relative to control; type: functional; conditions: read-out: GI
MCF7 = test: Growth inhibition of human MCF7 cells at 10 uM relative to control; type: functional; conditions: read-out: GI
UACC-257 = test: Growth inhibition of human UACC-257 cells at 10 uM relative to control; type: functional; conditions: read-out: GI
NCI-H226 = test: Growth inhibition of human NCI-H226 cells at 10 uM relative to control; type: functional; conditions: read-out: GI
CAKI-1 = test: Growth inhibition of human CAKI-1 cells at 10 uM relative to control; type: functional; conditions: read-out: GI
MDA-MB-231 = test: Growth inhibition of human MDA-MB-231 cells at 10 uM relative to control; type: functional; conditions: read-out: GI
786-0 = test: Growth inhibition of human 786-0 cells at 10 uM relative to control; type: functional; conditions: read-out: GI
NCI-H322M = test: Growth inhibition of human NCI-H322M cells at 10 uM relative to control; type: functional; conditions: read-out: GI
A549 = test: Growth inhibition of human A549 cells at 10 uM relative to control; type: functional; conditions: read-out: GI
LOX IMVI = test: Growth inhibition of human LOX IMVI cells at 10 uM relative to control; type: functional; conditions: read-out: GI
RPMI-8226 = test: Growth inhibition of human RPMI-8226 cells at 10 uM relative to control; type: functional; conditions: read-out: GI
OVCAR-4 = test: Growth inhibition of human OVCAR-4 cells at 10 uM relative to control; type: functional; conditions: read-out: GI
SNB-75 = test: Growth inhibition of human SNB-75 cells at 10 uM relative to control; type: functional; conditions: read-out: GI
HCT-116 = test: Growth inhibition of human HCT-116 cells at 10 uM relative to control; type: functional; conditions: read-out: GI
SK-MEL-5 = test: Growth inhibition of human SK-MEL-5 cells at 10 uM relative to control; type: functional; conditions: read-out: GI
T47D = test: Growth inhibition of human T47D cells at 10 uM relative to control; type: functional; conditions: read-out: GI
PC-3 = test: Growth inhibition of human PC-3 cells at 10 uM relative to control; type: functional; conditions: read-out: GI
CCRF-CEM = test: Growth inhibition of human CCRF-CEM cells at 10 uM relative to control; type: functional; conditions: read-out: GI
SNB-19 = test: Growth inhibition of human SNB-19 cells at 10 uM relative to control; type: functional; conditions: read-out: GI
BT-549 = test: Growth inhibition of human BT-549 cells at 10 uM relative to control; type: functional; conditions: read-out: GI
KM12 = test: Growth inhibition of human KM12 cells at 10 uM relative to control; type: functional; conditions: read-out: GI
OVCAR-5 = test: Growth inhibition of human OVCAR-5 cells at 10 uM relative to control; type: functional; conditions: read-out: GI
NCI-H522 = test: Growth inhibition of human NCI-H522 cells at 10 uM relative to control; type: functional; conditions: read-out: GI
SF-295 = test: Growth inhibition of human SF-295 cells at 10 uM relative to control; type: functional; conditions: read-out: GI
SN12C = test: Growth inhibition of human SN12C cells at 10 uM relative to control; type: functional; conditions: read-out: GI
HOP-62 = test: Growth inhibition of human HOP-62 cells at 10 uM relative to control; type: functional; conditions: read-out: GI
UO-31 = test: Growth inhibition of human UO-31 cells at 10 uM relative to control; type: functional; conditions: read-out: GI
DU-145 = test: Growth inhibition of human DU-145 cells at 10 uM relative to control; type: functional; conditions: read-out: GI
TK-10 = test: Growth inhibition of human TK-10 cells at 10 uM relative to control; type: functional; conditions: read-out: GI
NCI-H460 = test: Growth inhibition of human NCI-H460 cells at 10 uM relative to control; type: functional; conditions: read-out: GI
SF-539 = test: Growth inhibition of human SF-539 cells at 10 uM relative to control; type: functional; conditions: read-out: GI
MDA-MB-435 = test: Growth inhibition of human MDA-MB-435 cells at 10 uM relative to control; type: functional; conditions: read-out: GI
K562 = test: Growth inhibition of human K562 cells at 10 uM relative to control; type: functional; conditions: read-out: GI
SW-620 = test: Growth inhibition of human SW-620 cells at 10 uM relative to control; type: functional; conditions: read-out: GI
UACC-62 = test: Growth inhibition of human UACC-62 cells at 10 uM relative to control; type: functional; conditions: read-out: GI
M14 = test: Growth inhibition of human M14 cells at 10 uM relative to control; type: functional; conditions: read-out: GI
SK-OV-3 = test: Growth inhibition of human SK-OV-3 cells at 10 uM relative to control; type: functional; conditions: read-out: GI
HCC 2998 = test: Growth inhibition of human HCC 2998 cells at 10 uM relative to control; type: functional; conditions: read-out: GI
SR = test: Growth inhibition of human SR cells at 10 uM relative to control; type: functional; conditions: read-out: GI
HCT-15 = test: Growth inhibition of human HCT-15 cells at 10 uM relative to control; type: functional; conditions: read-out: GI
SK-MEL-2 = test: Growth inhibition of human SK-MEL-2 cells at 10 uM relative to control; type: functional; conditions: read-out: GI
MOLT-4 = test: Growth inhibition of human MOLT-4 cells at 10 uM relative to control; type: functional; conditions: read-out: GI
HL-60(TB) = test: Growth inhibition of human HL-60(TB) cells at 10 uM relative to control; type: functional; conditions: read-out: GI
RXF 393 = test: Growth inhibition of human RXF 393 cells at 10 uM relative to control; type: functional; conditions: read-out: GI
OVCAR-8 = test: Growth inhibition of human OVCAR-8 cells at 10 uM relative to control; type: functional; conditions: read-out: GI
HOP-92 = test: Growth inhibition of human HOP-92 cells at 10 uM relative to control; type: functional; conditions: read-out: GI
IGROV-1 = test: Growth inhibition of human IGROV-1 cells at 10 uM relative to control; type: functional; conditions: read-out: GI
ACHN = test: Growth inhibition of human ACHN cells at 10 uM relative to control; type: functional; conditions: read-out: GI
SF-268 = test: Growth inhibition of human SF-268 cells at 10 uM relative to control; type: functional; conditions: read-out: GI
Malme-3M = test: Growth inhibition of human Malme-3M cells at 10 uM relative to control; type: functional; conditions: read-out: GI
NCI/ADR-RES = test: Growth inhibition of human NCI/ADR-RES cells at 10 uM relative to control; type: functional; conditions: read-out: GI
DNA = test: Displacement of methyl green from DNA (unknown origin) assessed as DNA intercalation after 24 hrs by colorimetric assay; type: nucleic-acid assay
Hs-578T = test: Growth inhibition of human Hs-578T cells at 10 uM relative to control; type: functional; conditions: read-out: GI
SK-MEL-28 = test: Growth inhibition of human SK-MEL-28 cells at 10 uM relative to control; type: functional; conditions: read-out: GI
A498 = test: Growth inhibition of human A498 cells at 10 uM relative to control; type: functional; conditions: read-out: GI
COLO 205 = test: Growth inhibition of human COLO 205 cells at 10 uM relative to control; type: functional; conditions: read-out: GI
U-251 = test: Growth inhibition of human U-251 cells at 10 uM relative to control; type: functional; conditions: read-out: GI
HT-29 = test: Growth inhibition of human HT-29 cells at 10 uM relative to control; type: functional; conditions: read-out: GI
NCI-H23 = test: Growth inhibition of human NCI-H23 cells at 10 uM relative to control; type: functional; conditions: read-out: GI

Compound: COc1ccc(/C=C/C2=CC(c3ccc(OC)cc3)N3C=CSC3=N2)cc1 (centres undefined)
- inhibition of growth at 10 µM (MDA-MB-468): < 10%
- inhibition of growth at 10 µM (MCF7): < 10%
- inhibition of growth at 10 µM (UACC-257): 11.9%
- inhibition of growth at 10 µM (NCI-H226): < 10%
- inhibition of growth at 10 µM (CAKI-1): < 10%
- inhibition of growth at 10 µM (MDA-MB-231): < 10%
- inhibition of growth at 10 µM (786-0): < 10%
- inhibition of growth at 10 µM (NCI-H322M): < 10%
- inhibition of growth at 10 µM (A549): < 10%
- inhibition of growth at 10 µM (LOX IMVI): < 10%
- inhibition of growth at 10 µM (RPMI-8226): < 10%
- inhibition of growth at 10 µM (OVCAR-4): < 10%
- inhibition of growth at 10 µM (SNB-75): < 10%
- inhibition of growth at 10 µM (HCT-116): < 10%
- inhibition of growth at 10 µM (SK-MEL-5): < 10%
- inhibition of growth at 10 µM (T47D): < 10%
- inhibition of growth at 10 µM (PC-3): 17.2%
- inhibition of growth at 10 µM (CCRF-CEM): < 10%
- inhibition of growth at 10 µM (SNB-19): < 10%
- inhibition of growth at 10 µM (BT-549): < 10%
- inhibition of growth at 10 µM (KM12): < 10%
- inhibition of growth at 10 µM (OVCAR-5): < 10%
- inhibition of growth at 10 µM (NCI-H522): < 10%
- inhibition of growth at 10 µM (SF-295): < 10%
- inhibition of growth at 10 µM (SN12C): < 10%
- inhibition of growth at 10 µM (HOP-62): < 10%
- inhibition of growth at 10 µM (UO-31): < 10%
- inhibition of growth at 10 µM (DU-145): < 10%
- inhibition of growth at 10 µM (TK-10): < 10%
- inhibition of growth at 10 µM (NCI-H460): < 10%
- inhibition of growth at 10 µM (SF-539): < 10%
- inhibition of growth at 10 µM (MDA-MB-435): < 10%
- inhibition of growth at 10 µM (K562): < 10%
- inhibition of growth at 10 µM (SW-620): < 10%
- inhibition of growth at 10 µM (UACC-62): < 10%
- inhibition of growth at 10 µM (M14): < 10%
- inhibition of growth at 10 µM (SK-OV-3): < 10%
- inhibition of growth at 10 µM (HCC 2998): < 10%
- inhibition of growth at 10 µM (SR): < 10%
- inhibition of growth at 10 µM (HCT-15): < 10%
- inhibition of growth at 10 µM (SK-MEL-2): < 10%
- inhibition of growth at 10 µM (MOLT-4): < 10%
- inhibition of growth at 10 µM (HL-60(TB)): < 10%
- inhibition of growth at 10 µM (RXF 393): < 10%
- inhibition of growth at 10 µM (OVCAR-8): < 10%
- inhibition of growth at 10 µM (HOP-92): 10.1%
- inhibition of growth at 10 µM (IGROV-1): < 10%
- inhibition of growth at 10 µM (ACHN): < 10%
- inhibition of growth at 10 µM (SF-268): < 10%
- inhibition of growth at 10 µM (Malme-3M): < 10%
- inhibition of growth at 10 µM (NCI/ADR-RES): < 10%
- IC50 (DNA): 47.75 µg/mL (≈ 127 µM)
- inhibition of growth at 10 µM (Hs-578T): < 10%
- inhibition of growth at 10 µM (SK-MEL-28): < 10%
- inhibition of growth at 10 µM (A498): < 10%
- inhibition of growth at 10 µM (COLO 205): < 10%
- inhibition of growth at 10 µM (U-251): < 10%
- inhibition of growth at 10 µM (HT-29): < 10%
- inhibition of growth at 10 µM (NCI-H23): < 10%
